What all share (assay type): cell-based
Experiment [1] concerns the target T1, human GPR40 (Homo sapiens, UniProt O14842). Kind of experiment: FLIPR intracellular calcium assay in HEK-293 cells transiently expressing GPR40 (with G-protein cocktail). The following applies: for pEC50 / EC50: Additional Fatty Acid Compounds. The text has this: The Fluorometric Imaging Plate Reader (FLIPR™, Molecular Devices, UK) measures intracellular fluorescense in multi-well microplates. Where a GPCR couples to a calcium signalling pathway, the FLIPR system can be used with cells expressing the G-protein coupled receptor and containing calcium-sensitive fluorescent dyes, to monitor the intracellular calcium flux that occurs after activation of the G-coupled receptor. See, e.g., Kirk et al., J. Biomolecular Screening, 1:75 (1996).
(§1) The assays utilized a G-protein cocktail (+GPC) that contained chimeric and promiscuous G-proteins, as is known in the art of screening orphan G-protein coupled receptors.
(In general: Calcium flux is commonly read through the fluorescence of an indicator in the cells.)

Experiment [2] deals with CHO GAL4/Elk-1 reporter cell line. Kind of experiment: GAL4/Elk-1 luciferase reporter assay in host CHO cells (reporter only), with and without pertussis toxin. The source says:
(§2) To further test the coupling of GPR40 to Gαi/Gαq a Gal4/Elk-1 reporter was used. A stable, clonal reporter line was created by transfecting CHO cells with a plasmid that contains an expression construct for GAL4/Elk-1 and a GAL4-luciferase reporter construct. A similar reporter system can now be purchased from Stratagene (under the trademark […]®). An expression construct for human GPR40 which contains a G418 resistance construct was transfected into the host CHO GAL4/Elk-1 reporter cell line (10ug plasmid DNA pCR3-GPR40) via electroporation. The cell lines were selected for with 500ug/mL G418 until all cells in the control were dead and clones were then picked. The Gal4/Elk-1 reporter can be activated through Gq or Gi. To confirm coupling via Gi, cells were treated with pertussis toxin treatment which ADP-ribosylates Gαi preventing its interaction with receptors (Bokoch et al., J. Biol. Chem 258:2072 (1983)). Pertussis toxin has no known effect on Gαq.
(§3) Host cells and those transfected with the GPR40 construct were plated in a 96-well tissue culture plate at 2000 cells/well in DMEM/F12 supplemented with 5% FBS. After 48 hours at 37°C at 5% CO2 the cells were placed in serum-free DMEM/F12 in the presence or absence of 1ug/ml pertussis toxin. […]

Experiment [3] deals with T1, human GPR40. Nature of the experiment: 3X-CRE-luciferase reporter assay in CHO cells (Gs coupling). On the set-up: expressed in transfected cells; host or cells: wild-type CHO cells, transient co-transfection (CMV-GPR40 + 3x-CRE-Luc). The settings on record: CRE-Luc; cells containing reporter only and cells containing GPR40; 4 hours of treatment; Figure 3c. As for the experimental part: Specific coupling was determined in mammalian cells using transient expression of a CRE-luciferase reporter for Gαs and stable cell-lines containing Gal4/ELK-1-luciferase reporter for Gαq/Gαi. Wild-type CHO cells were co-transfected with 3X-CRE-luciferase reporter vector and various amounts of an expression vector for GPR40. The control cells were transfected with reporter vector only. The reporter gene plasmids were produced in house but similar vectors can be purchased from Stratagene ([…]®). Cells were plated in a 24 well tissue culture plate at 1 x 10^4 cells/well in DMEM/F12 supplemented with 5% FBS. After 72 hours at 37°C, 5% CO2, the cells were transfected using the liposomal transfection reagent sold under the trademark LIPOFECTAMINE® and with the following combinations of plasmids: • A- 3x-CRE-Luc • B- 3x-CRE-Luc + CMV-GPR40 • C- 3x-CRE-Luc + CMV-Gs coupled receptor The concentration of reporter plasmid for all wells was 0.15µg/well. Concentrations of receptor plasmids were 0.5, 1.0, 5.0, 10.0 ng/well. After 24hrs Cells containing 1ng/well of receptor plasmid or no DNA control and CRE-Luc reporter were treated with fatty acid or the calcitonin which is known to act through a Gs-coupled receptor (Chakraborty, Science 251: 1078 (1991)) at concentrations indicated. […]
In general terms: Reporter assays use an easily measured gene product as a stand-in for the process of interest.

The target of experiment [4] is T1, human GPR40. Nature of the experiment: GAL4/Elk-1 luciferase reporter assay in CHO clones transfected with human GPR40, with and without pertussis toxin. On the set-up: expressed in transfected cells; host or cells: wild-type CHO cells, transient co-transfection (CMV-GPR40 + 3x-CRE-Luc). The settings on record: cells containing GPR40, Figure 4B.
Description: as §2, §3

The test system of the next experiment is PGRW. Kind of experiment: FLIPR intracellular calcium assay in HEK-293 cells transiently expressing control 7TM receptor PGRW. The following applies: HEK-293 cells transiently expressing PGRW; Figure 1.
Description: as §1

The test system of another experiment is HLTEX11. Kind of experiment: FLIPR intracellular calcium assay in HEK-293 cells transiently expressing control 7TM receptor HLTEX11. The following applies: HEK-293 cells transiently expressing HLTEX11; Figure 1.
Description: as §1

T1 sequence (O14842 whole entry): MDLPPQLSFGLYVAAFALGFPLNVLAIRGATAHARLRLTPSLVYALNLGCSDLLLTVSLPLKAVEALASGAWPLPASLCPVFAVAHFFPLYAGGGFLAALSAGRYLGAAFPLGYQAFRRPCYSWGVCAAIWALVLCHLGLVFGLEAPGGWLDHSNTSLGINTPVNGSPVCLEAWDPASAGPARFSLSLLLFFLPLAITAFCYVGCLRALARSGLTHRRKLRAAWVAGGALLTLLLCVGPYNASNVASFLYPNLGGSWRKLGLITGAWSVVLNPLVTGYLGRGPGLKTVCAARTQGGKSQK

What is called pEC50 is the EC50 on a negative log10 scale, so that one unit is a factor of ten. With `CCCCCCCCC#CCC#CCC#CCCCC(=O)O` [5,8,11-Eicosatriynoic acid], the negative logarithm of the EC50 (pEC50) on human GPR40 [1] (FLIPR) was found to be 5.77. The luciferase production entry (in experiment [2] (Figure 4B); at human GPR40 [3]) was “no effect” throughout. Further, the “effect of pertussis toxin treatment on the stimulated luciferase activity” value at human GPR40 [4] (1ug/ml pertussis toxin) is given as “not inhibited”. Besides, on human GPR40 [4], the “luciferase activity compared to basal” value was “increased”.

The EC50 is the midpoint of the concentration-response curve. As to `CCCCC[C@H](O)[C@H](O)/C=C/C=C/C=C\C/C=C\CCCC(=O)O` [14®, 15(S)-DiHETE], on human GPR40 [1] (FLIPR), the concentration giving a half-maximal response (EC50) was 23.4 µM and the negative-log EC50 (pEC50) was 4.63.

As for `C#CCCCCCCCCCCCCCCCC(=O)O` [17-Octadecynoic acid], the negative logarithm of the EC50 (pEC50) at human GPR40 [1] (FLIPR) is reported as 5.12.

Consider `CCCCC/C=C\C/C=C\C/C=C\C/C=C\CCCCCC(=O)O` [Adrenic acid], for which, at human GPR40 [1] (FLIPR), the EC50 was 13.5 µM and the pEC50 turned out to be 4.87.

Regarding `CC1=C(/C=C/C(C)=C/C=C/C(C)=C/C=O)C(C)(C)CCC1` [All-trans-retinal], at human GPR40 [1] (mean over experiments (n=1 or n=2 where printed), FLIPR), the “Mean pEC50 of 3 expts” value came out at 4.16.

Regarding `CCCCC/C=C\C/C=C\C/C=C\C/C=C\CCCC(=O)O` [Arachidonic acid], on human GPR40 [1] (FLIPR), the pEC50 amounted to 5.04.

For `CCCCC/C=C\C/C=C\C/C=C\CCCCCCC(=O)O` [Dihomo-gamma-linolenic acid], the pEC50 at human GPR40 [1] (FLIPR) amounted to 5.14.

With `CC/C=C\C/C=C\C/C=C\C/C=C\C/C=C\CCCCCC(=O)O` [Docosa-7Z,10Z,13Z,16Z,19Z-pentaenoic acid], on human GPR40 [1] (FLIPR), the pEC50 is recorded as 5.33.

As for `CC/C=C\C/C=C\C/C=C\CCCCCCCCCCCC(=O)O` [Docosa-13Z,16Z,19Z-trienoic acid], at human GPR40 [1] (FLIPR), the negative logarithm of the EC50 (pEC50) worked out at 5.17.

`CC/C=C\C/C=C\C/C=C\C/C=C\C/C=C\CCCC(=O)O` [Eicosa-5Z,8Z,11Z,14Z,17Z-pentaenoic acid]: on human GPR40 [1] (FLIPR), the negative logarithm of the EC50 (pEC50) is 5.17.

For `CCCCCCCCCCC/C=C\C/C=C\CCCC(=O)O` [Eicosa-5Z,8Z-dienoic acid], on human GPR40 [1] (FLIPR), the pEC50 amounted to 5.11.

Consider `CC/C=C\C/C=C\C/C=C\CCCCCCCCCC(=O)O` [Eicosa-11Z,14Z,17Z-trienoic acid], for which, on human GPR40 [1] (FLIPR), the negative logarithm of the EC50 (pEC50) is reported as 4.95.

As to `CCCCC/C=C\C/C=C\CCCCCCCCCC(=O)O` [Eicosa-11Z,14Z-dienoic acid], the pEC50 at human GPR40 [1] (FLIPR) is reported as 4.97.

With `CCCCCCCC/C=C/CCCCCCCC(=O)O` [Elaidic acid], the negative-log EC50 (pEC50) at human GPR40 [1] (FLIPR) came out at 4.87. Moreover, on human GPR40 [1] (HEK-293 cells transiently expressing GPR40, +GPC, Figure 1), the “FLIPR response (intracellular calcium levels)” value is listed as “response detected”. Also, the FLIPR response entry in the experiment with PGRW and in the experiment with HLTEX11 was “No response” in each case.

As to `CCCCCCCC/C=C\CCCCCCCC(=O)OC[C@@H](O)COP(=O)(O)O` [LPA, lysophosphatidic acid (oleoyl)], in experiment [2] (1ug/ml pertussis toxin, Figures 4A, 4C), the “agonist-stimulated reporter activity following pertussis toxin treatment” value was “completely abolished”.

Regarding `CCCCC/C=C\C/C=C\CCCCCCCC(=O)O` [Linoleic acid], on human GPR40 [1] (FLIPR), the pEC50 was 5.02.

For the molecule `CCCCCCCC/C=C\C/C=C\C/C=C\CCCC(=O)O` [Mean acid], on human GPR40 [1] (FLIPR), the EC50 was 2.51 µM and the pEC50 came to 5.60.

For the molecule `CCC=CCC=CCC=CCC=CCC=CC/C=C\CCC(=O)O` [cis-4,7,10,13,16,19-Docosahexaenoic acid], at human GPR40 [1] (FLIPR), the pEC50 came out at 5.79.

For the molecule calcitonin, the luciferase production result in the experiment with human GPR40 [3] was “increase”.

For the origin of these results see patent EP1354200B1, “METHOD OF SCREENING FOR GPR40 LIGANDS” (priority 2000, dated 2002).
